The subject of series [1] is Hepatitis B virus. Nature of the series: Antiviral activity against Hepatitis B virus assessed as inhibition of interaction between Trx-PreS and HBcAg. The format is functional, organism-based.
In series [2] the test system is Hepatitis B virus. The series can be described thus: Antiviral activity against Hepatitis B virus infected in human HepG2.2.15 cells assessed as decrease in HBV surface antigen secretion. The format is functional, organism-based, HepG2 2.2.15. To be noted: for IC50: Hepatitis B virus, HepG2 2.2.15.
Series [3] relates to Hepatitis B virus. Nature of the series: Antiviral activity against Hepatitis B virus infected in human HepG2.2.15 cells assessed as decrease in HBV e antigen secretion. It is filed as functional, organism-based, HepG2 2.2.15. To be noted: for IC50: Hepatitis B virus, HepG2 2.2.15.
The test system of series [4] is Hepatitis B virus. Nature of the series: Antiviral activity against Hepatitis B virus assessed as inhibition of Hepatitis B virus DNA replication. The format is functional, organism-based.
Series [5] in a line: Selectivity index, ratio of cytotoxicity towards human HepG2.2.15 cells to IC50 for HBV DNA production. The format is toxicity, cell-based. To be noted: read-out: Selectivity Index.
The test system of series [6] is Hepatitis B virus. The series can be described thus: Antiviral activity against Hepatitis B virus infected in human HepG2.2.15 cells assessed as decrease in HBV DNA production. To be noted: HepG2 2.2.15. It is filed as functional, organism-based.
The subject of series [7] is Hepatitis B virus. Nature of the series: Antiviral activity against Hepatitis B virus. It is filed as functional, organism-based.
Series [8] can be described thus: Selectivity index, ratio of cytotoxicity towards human HepG2.2.15 cells to IC50 for HBV e antigen secretion. To be noted: read-out: Selectivity Index. The format is toxicity, cell-based.
Series [9] deals with Hepatitis B virus. Nature of the series: Antiviral activity against Hepatitis B virus infected in human HepG2.2.15 cells assessed as decrease in HBV surface antigen secretion after 21 days. It is filed as functional, organism-based. To be noted: HepG2 2.2.15, 504 h.
The subject of series [10] is Hepatitis B virus. Nature of the series: Antiviral activity against Hepatitis B virus infected in human MS-G2 cells assessed as decrease in HBV surface antigen production at 20 ug/ml. The format is functional.
Series [11] has as its system Hepatitis B virus. The series can be described thus: Antiviral activity against Hepatitis B virus infected in human HepG2.2.15 cells assessed as decrease in HBV e antigen secretion after 9 days. The format is functional, organism-based. To be noted: HepG2 2.2.15, 216 h.
Series [12] concerns Hepatitis B virus. The series can be described thus: Antiviral activity against Hepatitis B virus infected in human HepG2.2.15 cells assessed as decrease in HBV surface antigen secretion by ELISA. The format is functional, organism-based. To be noted: HepG2 2.2.15.
Series [13] relates to Hepatitis B virus. The series can be described thus: Antiviral activity against Hepatitis B virus infected in human HepG2.2.15 cells assessed as decrease in HBV DNA production by quantitative RT-PCR analysis. It is filed as functional, organism-based. To be noted: HepG2 2.2.15.
Series [14] concerns Hepatitis B virus. Nature of the series: Antiviral activity against Hepatitis B virus infected in human HepG2.2.15 cells assessed as decrease in HBV e antigen secretion by ELISA. The format is functional, organism-based. To be noted: HepG2 2.2.15.
For series [15], the system named is Duck hepatitis B virus. The series can be described thus: Antiviral activity against Duck Hepatitis B virus infected in duckling assessed as decrease in DHBV DNA replication at 0.2 g/kg dosed for 10 days. It is filed as functional. To be noted: 240 h.
A short description of series [16]: Selectivity index, ratio of cytotoxicity towards human HepG2.2.15 cells to IC50 for HBV surface antigen secretion. It is filed as toxicity, cell-based. To be noted: read-out: Selectivity Index.
Series [17] deals with Hepatitis B virus. The series can be described thus: Antiviral activity against Hepatitis B virus assessed as inhibition of virion production. The format is functional, organism-based.

The structures appear in SMILES notation. Values after ≈ are worked out from the molar mass of the structure shown.

Consider 28 compounds from ChEMBL document CHEMBL3120134, “A review of non-nucleoside anti-hepatitis B virus agents” (Eur J Med Chem, 2014).

Usually IC50 stands for the point on the concentration scale where inhibition reaches its midpoint. Regarding `O=C1OC(OCc2ccccc2)=N/C1=C\c1ccccc1`, the half-inhibitory concentration (IC50) in [1] amounted to 5.4 µM.
On to `COc1cc2c(cc1OC)-c1c(C)c3ccc4c(c3c[n+]1CC2)OCO4.[OH-]`, for which the “inhibition (INH)” value in series [2] is listed as 50%; in [3] it was 40%.
For the compound `CC(C)Cc1sc(-c2nccs2)nc1C(=O)O`, in series [4], the IC50 worked out at 60 µM.
Take `CCOC(=O)c1cc2cc(OC)c(O)c(Cn3ccnc3)c2nc1C[S+]([O-])c1ccc(F)cc1` (centres undefined): the selectivity ratio in [5] turned out to be 37.9. In addition, the IC50 in series [6] is 3.5 µM.
As a reminder, the EC50 is the concentration needed to bring the measured effect to its halfway point. The compound `Cc1ccc(O)c(C(=O)Nc2ncc(Cl)s2)c1` displayed an EC50 in series [7] of 0.12 µM.
For the compound `CC(=O)O[C@H]([C@@H]1C[C@@H](C)C2=C3C[C@H](O)[C@H]4[C@@]5(C)CCC(=O)C(C)(C)[C@@H]5CC[C@]4(C)[C@@]3(C)C[C@@H]2O1)C(C)(C)O`, the IC50 stood at 0.6 µM in [2] and 5.1 µM in series [3]. Moreover, the selectivity ratio in [8] was found to be 18.5.
On to `C[C@H]1[C@H](OC(=O)CCC(=O)O)O[C@@H]2O[C@@]3(C)CC[C@H]4[C@H](C)CC[C@@H]1[C@@]24OO3` [ARTESUNATE], for which the IC50 in series [9] was determined as 2.3 µM.
On to `CCOC(=O)c1c(C[S+]([O-])c2cccc(F)c2)n(C)c2cc(Br)c(O)c(CN3CCOCC3)c12` (centres undefined), for which the IC50 in [7] was under 60 µg/mL.
As usually defined, the inhibition is the change of the read-out against control, counted positive when it falls. `COc1c(O)cc(O)c2c(=O)cc(-c3ccccc3)oc12` [WOGONIN]: the inhibition at 20 µg/mL in series [10] is 45.4%. Moreover, in [11], the IC50 is 4 µg/mL (≈ 14.1 µM).
In [7], `CCOC(=O)c1c(C[S+]([O-])c2ccc(F)c(F)c2)n(C)c2cc(Br)c(O)c(Cn3ccnc3C)c12` (centres undefined) came in with an IC50 of under 60 µg/mL.
`COC(=O)C1=C(C)NC(c2ncccc2F)=N[C@@H]1c1ccc(F)cc1Cl`: the IC50 in [4] was found to be 0.15 µM.
As for `O=C(Nc1ncc(Cl)s1)c1ccccc1O`, the concentration for a half-maximal effect (EC50) in series [7] stood at 0.12 µM.
As to `CCOC(=O)c1cc2cc(OC)c(O)c(Cn3ccnc3)c2nc1C[S+]([O-])c1ccc(F)c(F)c1` (centres undefined), in series [5], the selectivity ratio came to 61.7. For the same compound, the IC50 in series [6] is 2.6 µM.
As for `COc1cc2cc3c(nc2c(Cn2ccnc2C)c1O)-c1ccc(F)cc1SC3`, the selectivity ratio in series [5] stood at 60.3. The IC50 in series [6] was 1.7 µM.
For `C[C@H](C[C@H](O)[C@@H](O)C(C)(C)O)[C@]12CC[C@@]3(C)[C@@]1(C[C@H](O)[C@H]1[C@@]4(C)CCC(=O)C(C)(C)[C@@H]4CC[C@@]13C)O2`, the IC50 in series [2] was found to be 0.6 µM.
Regarding `O=c1[nH][nH]c(=O)c2c(-c3ccc4c(c3)OCO4)c3c4c(ccc3cc12)OCO4`, in series [7], it took 0.03 µM to reach a half-maximal effect (EC50).
For the compound `NC(=O)c1cc2ccc3c(c2c(-c2ccc4c(c2)OCO4)c1C(=O)O)OCO3`, the EC50 in [7] was 0.8 µM.
`CC(=O)OC[C@H]1O[C@@H](Sc2nnc(-c3ccc(Cl)cc3)n2N)[C@H](OC(C)=O)[C@@H](OC(C)=O)[C@@H]1OC(C)=O` gave an IC50 in series [7] of 63 µM.
On to `O=C1OCc2c1cc1ccc3c(c1c2-c1ccc2c(c1)OCO2)OCO3` [HELIOXANTHIN], for which the midpoint of the response in series [7], the EC50, lay at 1 µM.
For the compound `CCOC(=O)c1nc(-c2ncc(C)s2)sc1CC(C)C`, the IC50 in series [4] is 0.14 µM.
Regarding `COc1cc2nc3c(cc2c(CN2CCCCC2)c1O)CSc1c(C)cc(C)cc1-3`, in series [6], the IC50 is under 10 µM.
In the case of `O=Cc1ccc(O)c(O)c1` [PROTOCATECHUALDEHYDE], the EC50 in series [12] turned out to be 3.94 µg/mL (≈ 28.5 µM); in series [14], 2.46 µg/mL (≈ 17.8 µM). Besides, the IC50 in series [13] was 4.17 µg/mL (≈ 30.2 µM).
The inhibition in vivo is the relative decrease from the control value, in per cent. Consider `C[C@@H]1CC[C@]2(C(=O)O[C@@H]3O[C@H](CO)[C@@H](O)[C@H](O)[C@H]3O)CC[C@]3(C)C(=CC[C@@H]4[C@@]5(C)C[C@@H](O)[C@H](O)C(C)(C)[C@@H]5CC[C@]43C)[C@@H]2[C@]1(C)O`, for which, in [15], the inhibition in vivo at 200 mg/kg was 58.5%. Moreover, the values for the half-inhibitory concentration (IC50) in series [2], in series [6] and in [3] were 57.7 µg/mL, 19.4 µg/mL and 30 µg/mL, respectively. The values for the selectivity ratio in series [8], in series [5] and in series [16] were 7.86, 12.1 and 4.1, respectively.
In the case of `CCOC(=O)c1c(C[S+]([O-])c2ccc(F)cc2)n(C)c2cc(Br)c(O)c(CN3CCOCC3)c12` (centres undefined), the IC50 in series [7] was under 60 µg/mL.
Consider `COC(=O)C1=C(C)NC(c2ncc(F)cc2F)=N[C@H]1c1ccc(F)cc1Cl`, for which, in series [4], the IC50 amounted to 0.05 µM.
On to `CCC(c1nnc(SCCN2CCN(c3ccccc3OC)CC2)o1)S(=O)(=O)c1ccccc1` (centres undefined), for which the half-maximal effective concentration (EC50) in [17] was found to be 1.63 µM.
Take `COc1cc2c(cc1O)-c1c(C)c3ccc4c(c3c[n+]1CC2)OCO4.[OH-]`: the “inhibition (INH)” value in [2] was 50%; in series [3], 40%.
`CCOC(=O)c1c(CS(=O)(=O)c2ccc(C)cc2)n(C2CC2)c2ccc(O)c(Cn3ccnc3)c12` came in with an IC50 in [7] of under 60 µg/mL.
